Several values for one entry are separate records, joined by “and”; a condition that tells them apart may be missing. Equal values may be shown once.
How the values were obtained:
[1] = Deliquescence relative humidity (DRH) of a saturated solution in a sealed vessel at 32° C.; type: physicochemical; settings: saturated solution in water (1 mL), 24 hours, mass used printed beside the name
Procedure: This experiment was to measure the deliquescence relative humidity (DRH) caused by a saturated amino acid solution in a sealed vessel at 32° C.; the lower the DRH, the greater the water holding capacity of the solution measured. Deliquescence relative humidity is the relative humidity at which the compound deliquesces, i.e. the relative humidity in which the compound absorbs so much water that it dissolves within the absorbed water.
The apparatus is maintained at 32° C. The temperature of 32° C. was chosen for being the temperature of outer stratum corneum. As the amino acids are to eventually be delivered to the outer layer of the skin, then the water holding capacity of these compounds at 32° C. is important.
The saturated solution is prepared as above by adding the amino acid to water (1 mL, 32° C.), whilst swirling. The total amino acid is weighed before adding to the water and the remaining amino acid so that the mass of compound used can be determined. The saturated solution (1 mL, 32° C.) is then transferred into the vial, again because of partial molar volume causing a change in volume by the addition of the amino acid to the water.
The temperature and % RH (% Relative Humidity) shown on the thermo-hygrometer are recorded every 30 minutes until the % RH remains constant. The temperature confirms that the temperature experienced by the sample is 32° C.

Psoriatic tissues = assay: Tissue viability (MTT) of psoriatic tissue during 6 day treatment; type: cell-based, human; settings: for irritancy conclusion from tissue viability over 6 days: 6 day dosing period; for Psoriatic tissues as a percentage of untreated control (%): 10% w/v, n = 1
Text: (§1) A human cell based in vitro psoriatic tissue model consisting of psoriatic fibroblasts and normal keratinocytes was used in this study. […] GM-CSF is a key activator of the innate immune system involved in chronic inflammatory and autoimmune diseases including psoriasis (Löntz et al 1995), where macrophages, granulocytes, neutrophils, eosinophils and dendritic cells can contribute to tissue damage and disease progression (Krinner 2007). GM-CSF stimulates stem cells to produce granulocytes and other macrophages and subsequently activates these differentiated immune cells. GM-CSF has also been identified as an inflammatory mediator in autoimmune disorders with elevated levels of GM-CSF mRNA or protein being measured in a variety of inflammatory sites including in allergic and psoriatic patients, arthritic and asthmatic patients (Plater-Zyberk et al 2008). Numerous in vivo studies over the past few years have shown that blockade of GM-CSF via neutralising antibodies can prevent or even cure pro-inflammatory diseases in various models of inflammation including arthritis experimental autoimmune encephalitis, psoriasis (Schon et al 2000), and lung disease (Plater-Zyberk et al 2008). […] Due to the importance of GM-CSF in psoriasis it was selected for analysis in this study.
(§2) In this investigation two types of RHE tissues were used, which were healthy and psoriatic tissue sourced from the MatTek Corporation (Ashland, Mass.). For simplicity the protocol below refers to both tissue types as RHE tissues and all media as assay medium as both tissues were treated in the same manner. The only exception was that two different types of media were required for the different types of tissue (healthy and psoriatic tissues).
• (i) At the end of the equilibration period, the media for each well was removed then the tissues were lifted and placed on culture stands and fresh pre-warmed (37° C.) assay medium (5 mL) was added to the well. • (ii) Using a positive displacement pipette, the test solutions 10% w/v, N-H-S(N-hydroxyserine) in water, […], N-H-G (N-hydroxyglycine) in water, 10% w/v, L-h-S (L-homoserine) in water and 10% w/v, combination 1:1:1 (N-H-S:N-H-G: L-h-S) in water were dispensed (50±0.5 μL) onto the top of the RHE tissue. The solutions or controls were then distributed over the surface of the RHE tissues using a sterile glass rod. • (iii) The lid was placed on the well plate containing the RHE tissue and the tissues were returned to the incubator (37° C., 5% CO2) 48 h between applications.
• (i) Every 48 h culture media for the RHE tissues was removed from the 6 well plates and transferred into tubes stored (−20° C.) for cytokine analysis. • (ii) Fresh pre-warmed (37° C.) assay medium (5 mL) was added to each tissue using an automatic pipette. • (iii) From each treatment 1 tissue was removed for viability assessment. • (iv) The RHE tissues were subsequently rinsed with 100 μL of PBS to remove the residual solution from the epidermal surface. • (v) Using a positive displacement pipette, the solutions 10% w/v, N-H-S in water, 1% w/v, N-H-G in water, 10% w/v, L-h-S in water and 10% w/v, combination 1:1:1 (N-H-S:N-H-G:L-h-S) were dispensed (50±0.5 μL) onto the top of the RHE tissue. The solutions or controls were then distributed over the surface of the RHE tissues using a sterile glass rod. • (vi) The lid was placed on the well plate containing the RHE tissue and the tissues were returned to the incubator (37° C., 5% CO2) 48 h between applications at t=0, 48 and 96 h. […]

GM-CSF = GM-CSF release from in vitro psoriatic tissue model (ELISA); type: cell-based, human; settings: over 6 days; 10% w/v N-H-S, 1% w/v N-H-G, 10% w/v L-h-S, 10% w/v combination 1:1:1 in water
Text: as §1
as §2, with “tissues). […]” for “tissues).”

SMILES: N[C@@H](CCO)C(=O)O [L-homoserine]
- DRH [1]: 71.4% and 71.37%
- irritancy conclusion from tissue viability over 6 days (Psoriatic tissues): non-irritants
- release of GM-CSF from psoriasis tissues compared to untreated psoriasis tissues (GM-CSF): reduced

SMILES: O=C(O)CNO [N-hydroxyglycine, N-Hydroxyglycine]
- DRH [1]: 68.1%
- Psoriatic tissues as a percentage of untreated control (%) (Psoriatic tissues; 2 days in treatments): 87.1%
- Psoriatic tissues as a percentage of untreated control (%) (Psoriatic tissues; 4 days in treatments): 77.6%
- irritancy conclusion from tissue viability over 6 days (Psoriatic tissues): non-irritants
- irritancy conclusion from tissue viability over 6 days (Psoriatic tissues; listed as N-H-G): non-irritating
- Psoriatic tissues as a percentage of untreated control (%) (Psoriatic tissues; 6 days in treatments): 89.6%
- release of GM-CSF from psoriasis tissues compared to untreated psoriasis tissues (GM-CSF): reduced

SMILES: O=C(O)[C@H](CO)NO [N-hydroxyserine]
- DRH [1]: 68.3%
- Psoriatic tissues as a percentage of untreated control (%) (Psoriatic tissues; 2 days in treatments): 94.0%
- Psoriatic tissues as a percentage of untreated control (%) (Psoriatic tissues; 4 days in treatments): 75.3%
- irritancy conclusion from tissue viability over 6 days (Psoriatic tissues): non-irritant
- irritancy conclusion from tissue viability over 6 days (Psoriatic tissues; listed as N-H-S): non-irritating
- Psoriatic tissues as a percentage of untreated control (%) (Psoriatic tissues; 6 days in treatments): 96.0%
- release of GM-CSF from psoriasis tissues compared to untreated psoriasis tissues (GM-CSF): reduced

From patent US20150328109A1, “DERMAL COMPOSITIONS CONTAINING UNNATURAL HYGROSCOPIC AMINO ACIDS” (MEDPHARM LIMITED, priority 2012, published 2015)
